# Assay results taken from patent US11530244B2, “Cyclic polypeptides for PCSK9 inhibition” (priority 2018, dated 2022).
# Starred links: 1 amine or outer side, 2 acyl side, 3 side chain; linkers in the order of their positions; H or OH if unused. Positions of bridges follow the written chain, without caps; N, C: chain ends. Non-standard residues stand in square brackets, D forms with d. Residues, ends and D or L forms follow the SMILES beside them. ξ: configuration not given here. Phe(3-CH2NH2) = O=C([C@H](Cc1cccc(CN[*:3])c1)N[*:1])[*:2]; X5 = O=C([C@@H]1C[C@H](SCc2ccc(C[*:3])cc2)CN1[*:1])[*:2]; NHCH2(1,3-C6H4)CH2CO = O=C(Cc1cccc(CN[*:1])c1)[*:2]; Pro(cis-4-OPh) = O=C(O)[C@@H]1C[C@H](Oc2ccccc2)CN1; Pro(cis-4-CF3) = O=C(O)[C@@H]1C[C@H](C(F)(F)F)CN1; Trp(5-F) = N[C@@H](Cc1c[nH]c2ccc(F)cc12)C(=O)O; X4 = O=C(CCSCc1cccc(CSCCN[*:1])c1)[*:2]; γGlu = O=C(O)[C@H](CCC(=O)[*:2])N[*:1]; mXylylene = c1cc(C[*:1])cc(C[*:2])c1; AEF = NCCOc1ccc(C[C@H](N)C(=O)O)cc1; NMeY = CN[C@@H](Cc1ccc(O)cc1)C(=O)O; aThr = C[C@H](O)[C@H](N)C(=O)O; αMeP = C[C@@]1(C(=O)O)CCCN1; hSer = N[C@@H](CCO)C(=O)O; ξD = NC(CC(=O)O)C(=O)O; Mpa = O=C(O)CCS
# Experiments:
# Type in all cases: binding
# [1] = biological target: human PCSK9 / human LDLR EGFa domain interaction (Homo sapiens (Human), UniProt Q8NBP7); assay: TR-FRET assay of inhibition of the PCSK9-LDLR protein-protein interaction; settings: TR-FRET, 20 nM human PCSK9, 20 nM human LDLR EGFa domain, 2 hours room temperature; read-out: IC50
# Sequence of human PCSK9 / human LDLR EGFa domain interaction (Q8NBP7 153-692): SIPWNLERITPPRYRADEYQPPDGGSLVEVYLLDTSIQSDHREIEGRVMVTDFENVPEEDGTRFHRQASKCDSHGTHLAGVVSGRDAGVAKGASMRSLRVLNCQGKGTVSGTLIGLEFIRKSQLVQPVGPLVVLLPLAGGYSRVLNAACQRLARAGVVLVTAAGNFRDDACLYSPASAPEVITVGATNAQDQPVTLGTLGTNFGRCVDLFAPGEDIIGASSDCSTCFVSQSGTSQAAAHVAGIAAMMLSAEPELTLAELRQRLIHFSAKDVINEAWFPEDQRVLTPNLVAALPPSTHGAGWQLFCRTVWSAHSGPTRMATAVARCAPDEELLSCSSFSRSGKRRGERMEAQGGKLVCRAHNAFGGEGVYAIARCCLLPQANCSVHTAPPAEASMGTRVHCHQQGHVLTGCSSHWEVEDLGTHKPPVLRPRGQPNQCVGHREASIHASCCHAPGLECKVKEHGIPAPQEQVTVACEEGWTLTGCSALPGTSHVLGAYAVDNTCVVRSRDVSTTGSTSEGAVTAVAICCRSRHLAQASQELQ
# Sequence of human PCSK9 / human LDLR EGFa domain interaction (Q8NBP7 31-152 partner): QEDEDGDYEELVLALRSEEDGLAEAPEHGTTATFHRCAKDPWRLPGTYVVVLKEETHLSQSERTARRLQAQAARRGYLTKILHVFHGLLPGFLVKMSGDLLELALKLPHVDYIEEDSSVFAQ
# Outline: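 Biotinylated PCSK9 (20 nM) and His-tagged LDLR EGFa domain (20 nM) were incubated 2 h at room temperature with 5 nM Ulight-streptavidin and 5 nM Eu-anti-His in HEPES/NaCl/CaCl2 buffer with 0.01% BSA and 0.01% P20. TR-FRET was read; half-maximal inhibitory concentrations came from 4-parameter dose-response fits.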
# PCSK9 [2] = biological target: T1, PCSK9 (Homo sapiens (Human), UniProt Q8NBP7); assay: PCSK9 Alexa FRET Standard assay (displacement of AlexaFluor647 tagged cyclic peptide Reagent A); settings: PCSK9 Alexa FRET Standard assay, 0.5 nM PCSK9, 20 nM AF cyclic peptide Reagent A; read-out: IC50
# T1 sequence (Q8NBP7 153-692): as the sequence (Q8NBP7 153-692) above
# Outline: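 TR-FRET displacement: 0.5 nM biotinylated PCSK9 with 1.25 nM Strep-Eu and 20 nM AlexaFluor-tagged cyclic peptide (final) in 50 mM HEPES pH 7.4, 0.15 M NaCl, 5 mM CaCl2, 0.01% BSA, 0.01% P20, ≥2 h at room temperature. IC50 from sigmoidal fit, converted to Ki via peptide KD; falling Eu counts flagged false positives.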
# PCSK9 [3] = biological target: T1, PCSK9; assay: PCSK9 Alexa FRET Plus assay (displacement of AlexaFluor647 tagged cyclic peptide Reagent B); settings: 0.5 nM PCSK9, 960 nM AF cyclic peptide Reagent B
# Outline: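 TR-FRET displacement with final 0.5 nM biotinylated PCSK9, 1.25 nM Strep-Eu and 960 nM AlexaFluor-tagged cyclic peptide in HEPES pH 7.4, NaCl, CaCl2, BSA, P20; ≥2 h at room temperature. IC50 from sigmoidal fit, converted to Ki using peptide KD. Falling europium counts flagged false positives.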
# [4] = Alexa FRET Plus, read-out: IC50
SMILES,IC50 [1] [nM],IC50 (PCSK9 [2]) [nM],IC50 (PCSK9 [3]; [4]) [nM],"IC50 (PCSK9 [3]; IC50, Alexa FRET Plus) [nM]"
COc1ccc(C[C@@H]2NC(=O)[C@H](Cc3cnc[nH]3)NC(=O)[C@H](CC(=O)O)NC(=O)[C@H](Cc3c[nH]c4ccc(F)cc34)NC(=O)[C@H](Cc3c[nH]c4ccc(F)cc34)NC(=O)[C@@H](C)NC(=O)[C@H](CCCCN)NC(=O)[C@@H](NC(C)=O)CC(=O)NCCOc3ccc(cc3)C[C@@H](C(N)=O)NC(=O)[C@]3(C)CCCN3C2=O)cc1 [Compound 349] (Ac-DK[dA][Trp(5-F)][Trp(5-F)]DHY(Me)[αMeP][AEF]-NH2; lactam 1-10),0.1 to 100,0.11 to 100,100 to 500,–
NCCCC[C@@H]1NC(=O)CCSCc2cccc(c2)CSC[C@@H](C(N)=O)NC(=O)[C@@H]2C[C@H](Oc3ccccc3)CN2C(=O)[C@H](Cc2ccc(O)cc2)NC(=O)[C@H](Cc2cnc[nH]2)NC(=O)[C@H](CC(=O)O)NC(=O)[C@H](Cc2c[nH]c3ccc(F)cc23)NC(=O)[C@H](Cc2c[nH]c3ccc(F)cc23)NC(=O)CNC1=O [Compound 367] ([Mpa]KG[Trp(5-F)][Trp(5-F)]DHY[Pro(cis-4-OPh)]C-NH2; linker 1-10 via mXylylene),0.1 to 100,100 to 1000,500 to 5000,–
"COc1ccc(C[C@@H]2NC(=O)[C@H](Cc3cnc[nH]3)NC(=O)[C@H](CC(=O)O)NC(=O)[C@H](Cc3c[nH]c4ccc(F)cc34)NC(=O)[C@H](Cc3c[nH]c4ccc(F)cc34)NC(=O)[C@@H](C)NC(=O)Cc3cccc(c3)CNC(=O)CC(C(=O)O)NC(=O)[C@]3(C)CCCN3C2=O)cc1 (stereo partly drawn) [Compound 401] ([NHCH2(1,3-C6H4)CH2CO][dA][Trp(5-F)][Trp(5-F)]DHY(Me)[αMeP][ξD]-OH; lactam N-9)",0.1 to 100,0.11 to 100,0.1 to 100,–
C[C@@]12CCCN1C(=O)[C@H](Cc1ccc(O)cc1)NC(=O)[C@H](Cc1cnc[nH]1)NC(=O)[C@H](CC(=O)O)NC(=O)[C@H](Cc1c[nH]c3ccc(F)cc13)NC(=O)[C@H](Cc1c[nH]c3ccc(F)cc13)NC(=O)CNC(=O)[C@H](CCO)NC(=O)CCSCc1cccc(c1)CSC[C@@H](C(N)=O)NC2=O [Compound 376] ([Mpa][hSer]G[Trp(5-F)][Trp(5-F)]DHY[αMeP]C-NH2; linker 1-10 via mXylylene),0.1 to 100,0.11 to 100,100 to 500,–
COc1ccc(C[C@@H]2NC(=O)[C@H](Cc3ccc(OC)cc3)NC(=O)[C@@H](CC(C)C)NC(=O)[C@H]([C@@H](C)OC)NC(=O)CCSCc3cccc(c3)CSC[C@@H](C(N)=O)NC(=O)[C@@H]3CCCN3C(=O)[C@H](Cc3ccc(OC)cc3)NC(=O)[C@H](Cc3ccc(OC)cc3)NC(=O)[C@H](CC(C)C)NC2=O)cc1 [Compound 034] ([Mpa]T(Me)[dL]Y(Me)Y(Me)LY(Me)Y(Me)PC-NH2; linker 1-10 via mXylylene),0.1 to 100,0.11 to 100,0.1 to 100,–
NCCCC[C@@H]1NC(=O)CCSCc2ccc(cc2)CS[C@H]2C[C@@H](C(N)=O)N(C2)C(=O)[C@H](Cc2ccc(O)cc2)NC(=O)[C@H](Cc2cnc[nH]2)NC(=O)[C@H](CC(=O)O)NC(=O)[C@H](Cc2c[nH]c3ccc(F)cc23)NC(=O)[C@H](Cc2c[nH]c3ccc(F)cc23)NC(=O)CNC1=O [Compound 328] ([Mpa]KG[Trp(5-F)][Trp(5-F)]DHY[X5]-NH2; thioether 1-9),0.1 to 100,100 to 1000,500 to 5000,–
NCCCC[C@@H]1NC(=O)CCCn2cc(nn2)CCC[C@@H](C(N)=O)NC(=O)[C@@H]2CCCN2C(=O)[C@H](Cc2ccc(O)cc2)NC(=O)[C@H](Cc2c[nH]cn2)NC(=O)[C@H](CC(=O)O)NC(=O)[C@H](Cc2c[nH]c3ccc(F)cc23)NC(=O)[C@H](Cc2c[nH]c3ccc(F)cc23)NC(=O)CNC1=O [Compound 152],0.1 to 100,100 to 1000,500 to 5000,–
NCCCC[C@@H]1NC(=O)CCSCc2cccc(c2)CSC[C@@H](C(N)=O)NC(=O)[C@@H]2C[C@H](C(F)(F)F)CN2C(=O)[C@H](Cc2ccc(O)cc2)NC(=O)[C@H](Cc2c[nH]cn2)NC(=O)[C@H](CC(=O)O)NC(=O)[C@H](Cc2c[nH]c3ccc(F)cc23)NC(=O)[C@H](Cc2c[nH]c3ccc(F)cc23)NC(=O)CNC1=O [Compound 296] ([Mpa]KG[Trp(5-F)][Trp(5-F)]DHY[Pro(cis-4-CF3)]C-NH2; linker 1-10 via mXylylene),0.1 to 100,0.11 to 100,0.1 to 100,–
"COc1ccc(C[C@@H]2NC(=O)[C@H](Cc3cnc[nH]3)NC(=O)[C@H](CC(=O)O)NC(=O)[C@H](Cc3c[nH]c4ccc(F)cc34)NC(=O)[C@H](Cc3c[nH]c4ccc(F)cc34)NC(=O)[C@@H](C)NC(=O)[C@H](NC(C)=O)CCCCNC(=O)Cc3cccc(c3)CNC(=O)CC[C@@H](C(=O)O)NC(=O)[C@]3(C)CCCN3C2=O)cc1 [Compound 396] (Ac-[dK][dA][Trp(5-F)][Trp(5-F)]DHY(Me)[αMeP][γGlu][NHCH2(1,3-C6H4)CH2CO]; lactam 1-C)",0.1 to 100,0.11 to 100,100 to 500,–
NCCCC[C@@H]1NC(=O)CCCn2cc(nn2)C[C@@H](C(N)=O)NC(=O)[C@@H]2CCCN2C(=O)[C@H](Cc2ccc(O)cc2)NC(=O)[C@H](Cc2c[nH]cn2)NC(=O)[C@H](CC(=O)O)NC(=O)[C@H](Cc2c[nH]c3ccc(F)cc23)NC(=O)[C@H](Cc2c[nH]c3ccc(F)cc23)NC(=O)CNC1=O [Compound 184],0.1 to 100,0.11 to 100,0.1 to 100,–
CO[C@@H](C)[C@@H]1NC(=O)CCSCc2cccc(c2)CSC[C@@H](C(N)=O)NC(=O)[C@]2(C)CCCN2C(=O)[C@H](Cc2ccc(O)cc2)NC(=O)[C@H](Cc2cnc[nH]2)NC(=O)[C@H](CC(=O)O)NC(=O)[C@H](Cc2c[nH]c3ccc(F)cc23)NC(=O)[C@H](Cc2c[nH]c3ccc(F)cc23)NC(=O)CNC1=O [Compound 377] ([Mpa][aThr](Me)G[Trp(5-F)][Trp(5-F)]DHY[αMeP]C-NH2; linker 1-10 via mXylylene),0.1 to 100,0.11 to 100,100 to 500,–
C[C@H]1NC(=O)[C@H](CCCCN)NC(=O)CCSCc2cccc(c2)CSCCNC(=O)[C@]2(C)CCCN2C(=O)[C@H](Cc2ccc(O)cc2)N(C)C(=O)[C@H](Cc2c[nH]cn2)NC(=O)[C@H](CC(=O)O)NC(=O)[C@H](Cc2c[nH]c3ccc(F)cc23)NC(=O)[C@H](Cc2c[nH]c3ccc(F)cc23)NC1=O [Compound 277] (cyclo(DH[NMeY][αMeP][X4]K[dA][Trp(5-F)][Trp(5-F)])),0.1 to 100,0.11 to 100,100 to 500,–
COc1ccc(C[C@@H]2NC(=O)[C@H]([C@@H](C)OC)NC(=O)[C@H](CCC(=O)O)NC(=O)[C@H](Cc3c[nH]c4ccc(F)cc34)NC(=O)[C@H](Cc3cccc(CN)c3)NC(=O)[C@@H](C)NC(=O)[C@H](C)NC(=O)CCSCc3cccc(c3)CSCCNC(=O)[C@]3(C)CCCN3C2=O)cc1 [Compound 343] (cyclo(A[dA][Phe(3-CH2NH2)][Trp(5-F)]ET(Me)Y(Me)[αMeP][X4])),0.1 to 100,0.11 to 100,0.1 to 100,–
COc1ccc(C[C@@H]2NC(=O)[C@H]([C@@H](C)O)NC(=O)[C@@H]3C[C@H](F)CN3C(=O)[C@H](Cc3c[nH]c4ccc(F)cc34)NC(=O)[C@H](Cc3c[nH]c4ccc(F)cc34)NC(=O)[C@@H](C)NC(=O)CNC(=O)CCCCNCc3ccc(cc3)C[C@@H](C(N)=O)NC(=O)[C@]3(C)CCCN3C2=O)cc1 [Compound 130],0.1 to 100,0.11 to 100,–,100 to 500
